The structures appear in SMILES notation.

One data set deals with Cell cultures. Briefly: Cell viability by MTT assay. It counts as cell-based. Particulars: at the concentrations tested; FIGS. 9A-9B. On the procedure:
FIGS. 9A and 9B: Toxicity of I3S and CH223191. Cell viability after treatment for 24 h with different concentrations of I3S (FIG. 9A) and CH223191 (FIG. 9B) evaluated by MTT assay.
Cell cultures grown in 96-well plates were exposed for 48 h to serial two-fold compound dilutions, three wells for each concentration and viability was measured with 3-(4,5-dimethylthiazol-2-yl)-2,5-diphenyl tetrazolium bromide (MTT, Sigma-Aldrich).

Data set [1] relates to ZIKV. The data set is described as follows: Infectious virus particles in supernatants of ZIKV-infected human NPC cells, plaque assay. It counts as cell-based, Zika virus. Particulars: FIG. 13. On the procedure: FIG. 13: Quantification of infectious virus particles in the supernatants of human NPC cells pre-treated with CH2213191 or vehicle-treated using a standard plaque assay in Vero cells. Data represent the mean+s.e.m. from three independent experiments. P values were determined by a one-way ANOVA followed by Tukey's post-hoc test.
HepG2 (ATCC, HB-8065), A549 (ATCC® CCL-185™), HeLa (ATCC, CCL-2) and Vero cells (African green monkey kidney) (ATCC, CCL-81) were grown in Dulbecco's Modified Eagle's medium (DMEM, GIBCO) supplemented with 10% fetal bovine serum, 100 IU/ml of penicillin and 100 ug/ml of streptomycin. HEK-293 cells (ATCC, CRL-1573) and SUM149 cells (Asterand Bioscience, Detroit, Mich.) were grown in DMEM/F12 (GIBCO) supplemented with 10% fetal bovine serum, 100 IU/ml of penicillin and 100 ug/ml of streptomycin. C6/36 mosquito cells from Aedes albopictus were used to generate viral stocks, and were cultured in L-15 medium (Leibovitz) (GIBCO) supplemented with 0.3% tryptose phosphate broth, 0.02% glutamine, 1% MEM non-essential amino acids solution and 10% fetal bovine serum. Human NPCs (Stem Cell Technologies, Catalog #70901) were grown using neural progenitor medium 2 (Stem Cell Technologies). […]

Data set [2] deals with ZIKV. Briefly: qPCR of ZIKV RNA in HepG2 cells treated before, during or after infection (viral entry step). It counts as cell-based, Zika virus. The conditions noted are these: HepG2, moi=3, pretreatment, adsorption or internalization, qPCR 2 hours after infection; FIG. 17. The method, then:
FIG. 17: Q-PCR quantification of ZIKV RNA in HepG2 cells treated with CH223191 or DMSO (vehicle) before infection, during infection, or after the infection with ZIKV (moi=3). 2 h p.i., cells were harvested for RNA extraction and qPCR analysis to determine the level of ZIKV RNA. Data represent the mean+s.e.m. from three independent experiments. P values were determined by Student's t-test.
To investigate whether AHR inhibition interferes with the viral entry step, we treated HepG2 cells with CH223191 at different early time points of ZIKV infection (pretreatment before viral entry, during viral adsorption and during virus internalization) and quantified ZIKV by qPCR 2 hours after infection. We detected no effect of CH223191 at these early timepoints during ZIKV infection as determined by qPCR, showing that AHR contributes to later stages of ZIKV replication (FIG. 17).
RNA was extracted using the RNAeasy kit (Qiagen). cDNA was synthesized using the High-Capacity cDNA Reverse Transcription kit (Applied Biosystems) and qPCR was performed using TaqMan Fast Advanced Master Mix (Applied Biosystems). Gene expression was normalized to GAPDH. […] RNA pellets were resuspended in RNase-free water and quantified by spectrophotometry (NanoDrop—Thermo Scientific) and stored at −80° C. […] Quantification was compared with threshold cycle (Ct) value with a ZIKV plasmid standard curve.
In general terms: Real-time PCR tracks product formation cycle by cycle.

Data set [3] deals with DENV-1, DENV-2, DENV-3, DENV-4. The data set is described as follows: DENV plaque assay of supernatants of A549 cells. It counts as cell-based, dengue virus. Particulars: A549 pre-treated, moi=0.1, 24 h p.i.; FIGS. 63A-63D. The method, then: FIG. 62: AHR activation boosts DENV replication. A549 cells were pretreated with the indicated concentrations of I3S for 24 h and infected with DENV-2 (moi=0.1). 48 h p.i. supernatants were harvested for plaque assay.
FIGS. 63A-63D: AHR modulation affects DENV replication. Infectious virus particles in the supernatants of A549 cells pre-treated with CH2213191 and infected with DENV-1 (FIG. 63A), DENV-2 (FIG. 63B), DENV-3 (FIG. 63C) or DENV-4 (FIG. 63D) (moi=0.1). At 24 h p.i. supernatants were harvested for plaque assay.

Regarding `Cc1ccccc1/N=N/c1ccc(NC(=O)c2ccnn2C)c(C)c1` [CH223191, 2-Methyl-2H-pyrazole-3-carboxylic Acid (2-methyl-4-o-tolylazo-phenyl)-amide], the cytotoxic effects result with Cell cultures was “no cytotoxic effects were detected”. Besides, the “ZIKV replication in NPCs cultures” value in the data set on ZIKV [1] is “decreased”. For the same compound, in the data set with ZIKV [2], the “effect on ZIKV RNA at early timepoints of infection” value was “no effect”. In data set [3], the “replication of the four DENV serotypes” value is reported as “reduced”.
